According to patent publication US4125538A, “Substituted 5-phenyl-2,3,4,5-tetrahydro-1,4-benzoxazepines” (Bristol-Myers Company, priority 1977, dated 1978):
Counter-ions that a name gives are not always drawn. Like-named read-outs stand apart in the source and are kept apart here.

Key:
[1] = system: phenylquinone-induced writhing in the mouse; assay: Phenylquinone-induced writhing test in the mouse; type: in vivo; conditions: for ED50: Mus musculus; for analgesic activity (in words): mouse, in vivo
Experimental: Compounds of formula I, and homologous and analogous compounds, were tested for analgesic activity by means of the phenylquinone-induced writhing test in the mouse, using the known analgesic, nefopam (5 methyl-1-phenyl-3,4,5,6-tetrahydro-1H-2,5-benzoxazocine), as a comparison standard. The method used was essentially that described by Siegmund et al. [Proc. Soc. exp. Biol. N. Y. 95, 729 (1957)]. Compounds were administered either subcutaneously (15 min) or orally (25 min) prior to the intraperitoneal injection of phenylquinone (2 mg/kg). […] The dose which produced a 50 percent reduction in the number of writhes, as compared to the control group, was called the ED50.
BL-R845 and nefopam were compared in additional phenylquinone-induced writhing tests in the mouse and rat, by various routes of administration.

[2] = system: cough response in male guinea-pigs; assay: Antitussive activity in male guinea-pigs (electrically stimulated cough); type: in vivo, guinea-pig; conditions: for inhibition in vivo at 10 mg/kg: Cavia porcellus, sc, 10 mg./kg. subcutaneously, cough tested at 30, 60 and 120 min, values of 30 or less not significantly different from saline controls, considered inactive or insufficiently active; for antitussive activity (in words): guinea pig, in vivo
Experimental: Compounds of formula I, and homologous and analogous compounds, were also tested for antitussive activity in male guinea-pigs, using a modification of the procedure of Friebel and Hahn [Med. Pharmacol. exp., 14, 78 (1966)]. Under general anesthesia, two stainless steel wires (0.2 mm diameter), stripped of their enamel insulation at the points of contact with the trachea, were wrapped around the trachea about 8 mm apart and then threaded under the skin and out through the back of the neck, one on each side. After 24 hrs, test animals were placed in a clear plastic cage and the cough threshold was determined by means of electrical stimulation. The following stimulation parameters were used: delay -- 0.01 msec, duration -- 0.6 msec and frequency -- 300 Hz. The minimal voltage (range 60-120 V) necessary to elicit a cough in less than 6 sec was determined. Each guinea-pig was stimulated 5 times at 30 sec intervals employing the predrug stimulation parameters at 30, 60 and 120 min following drug administration. A test animal was considered to be protected if more than 6 sec were required to produce a cough. Compounds were administered at a dosage of 10 mg./kg. subcutaneously. The percent inhibition of cough response was calculated as follows: % Inhibition = (A-B)/(A) × 100 a = number of coughs requiring <6 sec. stimulation after saline. B = number of coughs requiring <6 sec. stimulation after drug.

[3] = system: phenylquinone-induced writhing in the rat; assay: Phenylquinone-induced writhing test in the rat; type: in vivo; conditions: Table 4, rats
Text: BL-[…] and nefopam were compared in additional phenylquinone-induced writhing tests in the mouse and rat, by various routes of administration.

mouse hot plate = assay: Mouse hot plate (thermal analgesic test); type: in vivo; conditions: conventional thermal analgesic test
Text: (§1) The analgesic profile for BL-[…] and nefopam resembles that of the narcotic antagonist analgesics rather than the narcotic drugs. […] Nevertheless,both BL-[…] and nefopam differ from the antagonist action of naloxone. […] These findings indicate that BL-[…] and nefopam act on different receptor sites from those affected by the antagonist analgesics.

rat tail flick = assay: Rat tail flick (thermal analgesic test); type: in vivo; conditions: conventional thermal analgesic test
Text: as §1

rodent writhing = assay: Rodent writhing tests; conditions: in vivo
Text: as §1, with “BL-[…] and nefopam were compared in additional phenylquinone-induced writhing tests in the mouse and rat, by various routes of administration. The analgesic” for “The analgesic”

[4] = system: analgesic activity, naloxone antagonism; assay: Block of analgesic activity by naloxone; type: in vivo; conditions: naloxone as antagonist
Text: as §1

cough in dogs = assay: Antitussive activity in the dog (method of Stefko and Benson); conditions: for ED50: Canis lupus familiaris
[5] = sc, Table 1, s.c. 15 min before phenylquinone 2 mg/kg i.p., 50 percent reduction in number of writhes vs control, read-out: ED50
[6] = central, Table 4, mice, intraventricular, read-out: Phenylquinone-induced Writhing ED50, mice, intraventricular
[7] = sc, Table 4, mice, subcutaneous, read-out: Phenylquinone-induced Writhing ED50, mice, subcutaneous
[8] = Table 4, mice, oral, read-out: Phenylquinone-induced Writhing ED50, mice, oral
[9] = oral, read-out: Phenylquinone-induced Writhing ED50, rats, oral
[10] = sc, subcutaneous, read-out: Phenylquinone-induced Writhing ED50, rats, subcutaneous
[11] = po, read-out: ED50, antitussive, oral
[12] = sc, read-out: ED50, antitussive, s. c.

CNCCN1CCOc2ccc(Cl)cc2C1c1ccccc1 (stereo not shown) [BL-5366, 7-Chloro-4-(2-methylaminoethyl)-5-phenyl-2,3,4,5-tetrahydro-1,4,-benzoxazepine dihydrochloride]
ED50 [1, 5]: 13 mg/kg | analgesic activity (in words) [1]: little or no such activity | inhibition in vivo at 10 mg/kg [2]: 0% | antitussive activity (in words) [2]: little or no such activity

CCN(CC)CCN1CCOc2ccc(Cl)cc2C1c1ccccc1.Cl.Cl (stereo not shown) [BL-5372, 7-Chloro-4-(2-diethylaminoethyl)-5-phenyl-2,3,4,5-tetrahydro-1,4-benzoxazepine dihydrochloride]
ED50 [1, 5]: 10 mg/kg | analgesic activity (in words) [1]: little or no such activity | inhibition in vivo at 10 mg/kg [2]: 0% | antitussive activity (in words) [2]: little or no such activity

Cl.Cl.Clc1ccc2c(c1)C(c1ccccc1)N(CCN1CCCC1)CCO2 (stereo not shown) [BL-5397, 7-Chloro-4-(2-pyrrolidinoethyl)-5-phenyl-2,3,4,5-tetrahydro-1,4-benzoxazepine dihydrochloride]
ED50 [1, 5]: 2.5 mg/kg | analgesic activity (in words) [1]: valuable analgesic activity | inhibition in vivo at 10 mg/kg [2]: 0%

Cl.Cl.Clc1ccc2c(c1)C(c1ccccc1)N(CCN1CCOCC1)CCO2 (stereo not shown) [BL-5405, 7-Chloro-4-(2-morpholinoethyl)-5-phenyl-2,3,4,5-tetrahydro-1,4-benzoxazepine dihydrochloride]
ED50 [1, 5]: > 40 mg/kg | inhibition in vivo at 10 mg/kg [2]: 30%

Cl.Cl.Clc1ccc2c(c1)C(c1ccccc1)N(CCN1CCCCC1)CCO2 (stereo not shown) [BL-5409, 7-Chloro-4-(2-piperidinoethyl)-5-phenyl-2,3,4,5-tetrahydro-1,4-benzoxazepine dihydrochloride]
ED50 [1, 5]: 9 mg/kg | inhibition in vivo at 10 mg/kg [2]: 0%

CN1CCN(CCN2CCOc3ccc(Cl)cc3C2c2ccccc2)CC1.Cl.Cl.Cl (stereo not shown) [BL-5451, 7-Chloro-4-[2-(4-methylpiperazino)ethyl]-5-phenyl-2,3,4,5-tetrahydro-1,4-benzoxazepine trihydrochloride]
ED50 [1, 5]: 19 mg/kg | inhibition in vivo at 10 mg/kg [2]: 0%

CN(C)CCN1CCOc2ccc(Cl)cc2C1c1ccccc1.Cl.Cl (stereo not shown) [BL-R845, 7-Chloro-4-(2-dimethylaminoethyl)-5-phenyl-2,3,4,5-tetrahydro-1,4-benzoxazepine dihydrochloride]
ED50 [1, 6]: 0.31 mg/kg | ED50 [1, 7]: 1.3 mg/kg | ED50 [1, 8]: 11.6 mg/kg | analgesic activity (in words) [1]: effective analgesic | inhibition in vivo at 10 mg/kg [2]: 48% | antitussive activity (in words) [2]: effective analgesic and antitussive agent | ED50 [3, 9]: 12.8 mg/kg | ED50 [3, 10]: 1 mg/kg | analgesic activity, mouse hot plate (mouse hot plate): relative lack of analgesic activity | analgesic activity, rat tail flick (rat tail flick): relative lack of analgesic activity | activity in the rodent writhing tests (rodent writhing): good activity | effect of naloxone on analgesic activity [4]: does not block the analgesic activity | ED50 (cough in dogs; [11]): 2 to 5 mg/kg | ED50 (cough in dogs; [12]): 0.2 to 0.5 mg/kg | antitussive activity compared with nefopam or codeine (cough in dogs; dog, both routes of administration): more active than nefopam or codeine

COc1ccc2c3c1O[C@H]1[C@@H](O)C=C[C@H]4[C@@H](C2)N(C)CC[C@@]341 [codeine]
ED50 (cough in dogs; [11]): 7.8 mg/kg | ED50 (cough in dogs; [12]): 1.5 mg/kg

CN1CCOC(c2ccccc2)c2ccccc2C1 (stereo not shown) [nefopam, 5 methyl-1-phenyl-3,4,5,6-tetrahydro-1H-2,5-benzoxazocine, reference compound]
ED50 [1, 6]: 0.14 mg/kg | ED50 [1, 7]: 1.1 mg/kg | ED50 [1, 8]: 22 mg/kg | inhibition in vivo at 10 mg/kg [2]: 0% | ED50 [3, 9]: 9.6 mg/kg | ED50 [3, 10]: 1 mg/kg | analgesic activity, mouse hot plate (mouse hot plate): relative lack of analgesic activity | analgesic activity, rat tail flick (rat tail flick): relative lack of analgesic activity | activity in the rodent writhing tests (rodent writhing): good activity | effect of naloxone on analgesic activity [4]: does not block the analgesic activity | ED50 (cough in dogs; [11]): > 20 mg/kg | ED50 (cough in dogs; [12]): 2 to 5 mg/kg
